# Experimental data reported in patent US7189351B2, “D-tagatose as an anti-biofilm agent” (priority 2001, dated 2007).
# How the values were obtained:
# [1] = system: Actinomyces naeslundii PK29/Streptococcus morbillorum PK509; assay: reversal of coaggregation, visual score; type: cell-based; parameters: key to reversal of coaggregation: *: Coaggregations were reversed by both D-galactose and D-tagatose; details: for coaggregation score: pair PK29/PK509, water score 2, scale 0 no visible to 4 maximum coaggregation; for reversal of coaggregation: pair PK509/PK29, coaggregation score 2 without sugar
# Experimental: (§1) Fifteen oral isolates, including both early colonizers (Streptococcus and Actinomyces) and late colonizers (Fusobacterium, Porphyromonas, Prevotella, Veillonella, Capnocytophaga, and Actinobacillus), were tested for their ability to coaggregate with each other, followed by testing for the reversal of coaggregation by the addition of D-tagatose. Bacterial strains used were of human gingival crevice origin. The coaggregation was examined visually by a scoring system ranging from 0 for no visible coaggregation to 4 for maximum coaggregation [Cisar J. O., Kolenbrander P. E., and McIntire F. C., “Specificity of coaggregation reactions between human oral streptococci and strains of Actinomyces viscosus or Actinomyces naeslundii”, Infect. Immun., 24:742–752. 1979]. D-Tagatose, at a concentration of less than 750 mM, completely reversed the coaggregation of 17 (60%) of 28 strong coaggregating pairs (with a coaggregation score of 2 or higher) tested. […] These D-tagatose sensitive coaggregations were D-galactose reversible as well.
# (§2) Pairs of various species of oral bacteria were tested for coaggregation, and for reversal of coaggregation when D-tagatose or D-galactose was administered.
# [2] = system: Actinomyces naeslundii PK947/Streptococcus mitis J22; assay: reversal of coaggregation, visual score; type: cell-based; parameters: key to reversal of coaggregation: *: Coaggregations were reversed by both D-galactose and D-tagatose; details: for reversal of coaggregation: pair J22/PK947, coaggregation score 2 without sugar; for coaggregation score: pair PK947/J22, water score 2, scale 0 no visible to 4 maximum coaggregation
# Experimental: as §1, §2
# [3] = system: Actinomyces naeslundii PK947/Streptococcus oralis SO34; assay: reversal of coaggregation, visual score; type: cell-based; parameters: key to reversal of coaggregation: *: Coaggregations were reversed by both D-galactose and D-tagatose; details: for coaggregation score: pair PK947/SO34, water score 3, scale 0 no visible to 4 maximum coaggregation; for reversal of coaggregation: pair SO34/PK947, coaggregation score 3 without sugar
# Experimental: as §1, §2
# [4] = system: coaggregating pairs of oral isolates (early and late colonizers); assay: reversal of coaggregation among fifteen oral isolates (overall); type: cell-based, bacterial strains of human gingival crevice origin
# Experimental: as §1, §2
# oral bacteria = details: known from literature; cited from earlier work
# dental plaque = assay: D-tagatose in foods to control dental plaque (Example 3); type: in vivo, human; details: third monthly check-up
# Description: Forty subjects, half male, half female, ranging from 4 to 80 years in age, daily consume foodstuffs, such as cakes, cookies, pies, hard candy, hot and cold cereals, cold fruit drinks, iced tea, coffee and tea, that are sweetened with conventional sweeteners including sucrose and high fructose corn syrup (HFCS). After several monthly check-ups, these subjects are found to have high dental plaque indices, and many of them are diagnosed with plaque-related oral diseases. At this point, the test foodstuffs are switched such that D-tagatose is used as a one-for-one replacement for the table sugar and HFCS previously used. No other changes are made in the test regimen.
# [5] = system: staphylococcus lesion of the leg; assay: D-tagatose enhancing antibiotic activity (Example 4); type: in vivo, human; details: one patient; five grams with each of three meals daily plus oral penicillin; in the course of a week
# Description: A patient with a staphylococcus lesion of the leg is placed on oral penicillin by their physician. […] The formation of plaque in the infected region protects the interior microorganisms from the antibiotic coursing through the bloodstream, and the plaque organisms develop increased resistance. The physician prescribes five grams of D-tagatose be taken with each of three meals daily, along with continued taking of the penicillin.
# [6] = system: biofilm on the heart valve; assay: prophylaxis against prosthetic valve endocarditis (Example 5); type: in vivo, human; details: one patient; 10 grams with each of three daily meals, three days before until one week after surgery
# Description: An adult patient requires removal of their infected mitral valve and its replacement with a prosthetic valve. One of the principal hazards of such an operation is that the valve region of the heart will become infected, frequently with streptococci that form a biofilm protecting internal microorganisms from antibiotics, and also permitting such organisms to develop increasing resistance. In order to prevent the buildup of a biofilm infection, the physician places their patient on tagatose treatment for three days prior to the surgery. On each such day, the patient consumes 10 grams of D-tagatose with each of their three daily meals. The resulting D-tagatose blood level is sufficient to preclude the formation of a biofilm on the heart valve. The treatment is continued until one week after the operation and the patient is well on the road to recovery.
# [7] = prevention of stroke (Example 6); type: in vivo, human; details: one patient with high blood pressure; 5 grams with each of three daily meals
# Description: A patient has gradually developed high blood pressure over the years. Their doctor places them on a blood pressure medicine when their pressure reaches 135/90 mm Hg. Despite gradual increases in dosage of the medicine, and trials of new medicines, over time their blood pressure continues to increase until reaching 145/100 mm Hg. At this point the physician fears the possibility of a stroke.
# [8] = system: total bacteria and coliform; assay: sterilization of food-handling machinery, wash before Clean-In-Place (Example 7); details: 200 mM in sterile water run through equipment immediately prior to CIP
# Experimental: A cheese-making plant processes raw milk into cheese. The equipment includes many tubes, tubules, pipes and other surfaces that come in direct contact with the milk. Between runs, standard “Clean-In-Place” (CIP) operations are performed in which acid and oxidants are coursed through the equipment to contact all surfaces and are then washed out with sterile water. However, the formation of microbial plaques protects the microorganisms in the interiors of the plaques, and some survive the CIP. To overcome this problem, an initial step is added to the CIP whereby a stream of 200 mM D-tagatose in sterile water is run through the equipment, contacting all surfaces, immediately prior to instituting the CIP. […] Accordingly, the D-tagatose wash is made part of the CIP.
smiles,measurement,setting,value
O=C[C@H](O)[C@@H](O)[C@@H](O)[C@H](O)CO [D-Galactose],coaggregation score,[1]; sugar 143 mM,0
same,reversal of coaggregation,[1],2*
same,reversal of coaggregation,[2],2*
same,coaggregation score,[2]; sugar 143 mM,0
same,coaggregation score,[3]; sugar 143 mM,0
same,reversal of coaggregation,[3],3*
same,reversibility of the D-tagatose sensitive coaggregations,[4],reversible
same,reversal of coaggregations that would otherwise form dental plaque,oral bacteria,reverse the coaggregations of oral bacteria
O=C(CO)[C@@H](O)[C@@H](O)[C@H](O)CO [D-Tagatose],coaggregation score,[1]; sugar 200 mM,0
same,reversal of coaggregation,[1],2*
same,reversal of coaggregation,[2],2*
same,coaggregation score,[2]; sugar 200 mM,0
same,coaggregation score,[3]; sugar 200 mM,0
same,reversal of coaggregation,[3],3*
same,"plaque reversibility, comparison of Table 2",[4]; D-tagatose and D-sorbitol at somewhat higher concentrations than D-galactose,virtually equal to that of D-galactose
same,share of strong coaggregating pairs whose coaggregation was completely reversed,"[4]; concentration of less than 750 mM, 28 strong coaggregating pairs tested",60%
same,number of strong coaggregating pairs whose coaggregation was completely reversed,"[4]; concentration of less than 750 mM, of 28 strong coaggregating pairs (score of 2 or higher) tested",17
same,colonizers acted on,[4]; late colonizers were gram-negative anaerobes,acted on both early colonizers and late colonizers
same,plaque indices,"dental plaque; forty subjects, D-tagatose one-for-one replacement for table sugar and HFCS in foodstuffs",significantly lowered
same,plaque-related oral diseases,dental plaque; subjects who formerly exhibited disease,complete or nearly complete recovery
same,outcome of staphylococcus lesion,[5],the lesion disappears
same,infection after prosthetic valve replacement,[6],Infection has been avoided
same,risk of stroke,[7],significantly reduced
same,total bacteria and coliform counts in cheese-making equipment,[8],reducing the total bacteria and the coliform counts to acceptable regulatory levels
